Measured values reported in ChEMBL document CHEMBL5226346, “Chiral Cyclic Aliphatic Linkers as Building Blocks for Selective Dopamine D2 or D3 Receptor Agonists” (J Med Chem, 2021).

Columns and labels:
D(3) dopamine receptor = D(3) dopamine receptor (Homo sapiens, UniProt P35462); assay: Displacement of [3H]-(R)-(+)7-OH-DPAT from human dopamine D3 receptor expressed in HEK293 cell membranes incubated for 90 mins by microbeta scintillation counting analysis; parameters: species or system Cell membrane
HEK293 = assay: Selectivity ratio of Ki for displacement of [3H]-(R)-(+)7-OH-DPAT from human dopamine D2 receptor expressed in HEK293 cell membranes to Ki for displacement of [3H]-(R)-(+)7-OH-DPAT from human dopamine D3 receptor expressed in HEK293 cell membranes; conditions: Cell membrane
Homo sapiens [1] = species on record: Homo sapiens; assay: Selectivity ratio of Ki for displacement of [3H]-N-methylspiperone from human dopamine D2 receptor expressed in HEK293 cell membranes to Ki for displacement of [3H]-N-methylspiperone from human dopamine D3 receptor expressed in HEK293 cell membranes
D(2) dopamine receptor = D(2) dopamine receptor (Homo sapiens, UniProt P14416); assay: Displacement of [3H]-(R)-(+)7-OH-DPAT from human dopamine D2 receptor expressed in HEK293 cell membranes incubated for 90 mins by microbeta scintillation counting analysis; parameters: species or system Cell membrane
Homo sapiens [2] = species on record: Homo sapiens; assay: Selectivity ratio of Ki for displacement of [3H]-(R)-(+)7-OH-DPAT from human dopamine D3 receptor expressed in HEK293 cell membranes to Ki for displacement of [3H]-(R)-(+)7-OH-DPAT from human dopamine D2 receptor expressed in HEK293 cell membranes

Chain of D(2) dopamine receptor (P14416 whole entry): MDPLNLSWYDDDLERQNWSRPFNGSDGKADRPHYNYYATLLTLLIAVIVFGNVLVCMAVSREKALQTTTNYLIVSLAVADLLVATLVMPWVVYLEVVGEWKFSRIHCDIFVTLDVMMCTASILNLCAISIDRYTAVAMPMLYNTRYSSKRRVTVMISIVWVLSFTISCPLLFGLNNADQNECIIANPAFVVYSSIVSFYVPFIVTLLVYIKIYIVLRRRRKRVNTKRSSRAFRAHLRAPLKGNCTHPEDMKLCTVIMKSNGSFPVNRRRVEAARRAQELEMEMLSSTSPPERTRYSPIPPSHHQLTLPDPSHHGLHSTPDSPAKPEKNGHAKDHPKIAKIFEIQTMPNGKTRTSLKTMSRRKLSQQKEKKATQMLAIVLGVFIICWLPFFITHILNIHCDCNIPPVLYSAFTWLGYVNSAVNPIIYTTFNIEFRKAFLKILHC
Chain of D(3) dopamine receptor (P35462 whole entry): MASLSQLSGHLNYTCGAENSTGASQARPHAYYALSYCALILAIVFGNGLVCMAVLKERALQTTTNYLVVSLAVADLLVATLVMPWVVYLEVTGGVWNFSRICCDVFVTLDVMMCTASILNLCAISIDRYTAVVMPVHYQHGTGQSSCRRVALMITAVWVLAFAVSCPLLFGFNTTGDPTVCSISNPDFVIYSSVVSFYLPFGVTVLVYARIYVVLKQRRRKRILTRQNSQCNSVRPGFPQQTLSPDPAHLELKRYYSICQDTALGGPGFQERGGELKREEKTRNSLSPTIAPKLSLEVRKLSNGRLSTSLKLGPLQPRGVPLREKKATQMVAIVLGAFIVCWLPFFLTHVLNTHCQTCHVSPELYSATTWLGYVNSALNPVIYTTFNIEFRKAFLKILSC

Row | Ki (D(3) dopamine receptor) [nM] | Ratio Ki (HEK293) | Ki (D(2) dopamine receptor) [nM] | Structure (SMILES) | Ratio Ki (Homo sapiens [1]) | Ratio Ki (Homo sapiens [2])
1 | 6860 | 2 | 13500 | C[C@H]1CO[C@@H](c2ccc(N)nc2)CN1CCn1cc(CNC(=O)c2cc3ccccc3[nH]2)nn1 | 12 | 
2 | 1380 | 1.4 | 1870 | C[C@H]1CO[C@@H](c2ccc(N)nc2)CN1CC(=O)N1CCC(CNC(=O)c2cc3ccccc3[nH]2)C1 (some centres undefined) | 3.3 | 
3 |  | 7.5 |  | C[C@H]1CO[C@@H](c2ccc(N)nc2)CN1C/C=C1\CCC(CNC(=O)c2cc3ccccc3[nH]2)C1 (mixture of isomers) | 76 | 

The next lines start with the molecule.

Row | Structure (SMILES) | Ki (D(3) dopamine receptor) [nM] | Ratio Ki (HEK293) | Ki (D(2) dopamine receptor) [nM] | Ratio Ki (Homo sapiens [1]) | Ratio Ki (Homo sapiens [2])
4 | CN[C@@H]1Cc2cccc3[nH]c(=O)n(c23)C1 [SUMANIROLE] | 784 |  |  |  | 
5 | CN(C[C@@H]1C[C@H]1CCNC(=O)c1cc2ccccc2[nH]1)[C@@H]1Cc2cccc3[nH]c(=O)n(c23)C1 | 106 |  | 9.56 |  | 11
6 | CN(CC[C@@H]1CC[C@@H](CNC(=O)c2cc3ccccc3[nH]2)C1)[C@@H]1Cc2cccc3[nH]c(=O)n(c23)C1 (relative stereo) |  |  |  |  | 17
7 | CN(CC[C@@H]1CC[C@H](CNC(=O)c2cc3ccccc3[nH]2)C1)[C@@H]1Cc2cccc3[nH]c(=O)n(c23)C1 (relative stereo) |  |  |  |  | 9.6
8 | CN(C[C@H]1C[C@@H]1CCNC(=O)c1cc2ccccc2[nH]1)[C@@H]1Cc2cccc3[nH]c(=O)n(c23)C1 | 22.1 | 2.2 | 49.1 |  | 
